Source: patent US7893110B2 (Givaudan S.A., priority 2005, dated 2011)

What was measured:
mouth [1] = assay: Application in mouthwash: cooling sensation; type: in vivo; conditions: mouthwash with 50 mL of 1% sol. in alcohol per liter, plus peppermint oil; 30 mL put in the mouth, swished, gargled and spit out
Method: [table] All the ingredients are mixed. 30 mL of obtained solution is put in the mouth, swished around, gargled and spit out.

mouth [2] = assay: Application in toothpaste: cooling sensation felt by panelist; type: in vivo; conditions: toothgel with 2.5 g of 2% sol. in PG per 100 g, plus peppermint oil; 1 g brushed on teeth, mouth rinsed with water
Description: [table] The chemicals are mixed in the toothgel, and 1 g of the toothgel is put on a toothbrush and a panelist's teeth are brushed. The mouth is rinsed with water and the water is spit out.

SMILES	cooling sensation in the mouth (mouth [1])	cooling sensation in the mouth (mouth [2])
CC(C)(C)C1CCCCC1C(=O)Nc1ccc(CO)cc1 (centres unmarked) [Example 2L, 2-tert-Butyl-cyclohexanecarboxylic acid (4-hydroxymethyl-phenyl)-amide]	strong cooling sensation	
COc1ccc(NC(=O)C23CC4CC(CC(C4)C2)C3)cc1 [Example 2F, Adamantane-1-carboxylic acid (4-methoxy-phenyl)-amide]		cooling sensation
